Data set [1] has as its system SI mice. The data set can be described thus: Locomotor activity (Example 1). The class given is in vivo. The note with it: PEA 5, 10, 20 mg/kg i.p., G7 10 mg/kg i.p., G6 3 mg/kg i.p., FIN 50 mg/kg s.c. How it is done:
Locomotor activity. […] Horizontal sensors beam interruptions measured horizontal activity for a total of 10 min.

Data set [2] has as its system SI mice. The data set can be described thus: Elevated plus maze. Conditions: for time spent in the open arms (increase vs vehicle-treated SI mice): […] before test; for prevention of the anxiolytic effect of PEA, vs. PEA 10 mg/kg (FIG. 3D): PEA 10 mg/kg i.p. 1 h before test. The class given is in vivo. On the procedure: Elevated plus maze. Elevated plus maze tests were performed as previously (28). Mice chose between entering open or closed arms that extend from a central platform. An arm entry was scored when four legs were within the arm. Behavior was recorded for 5 min. The time spent and the number of open arm entries were used as index of anxiety-like behavior.

Data set [3] deals with early and late adolescent SI mice. Conditions: for EC50 dose, reduction of aggression: i.p., 60 min before test; for time after which aggression rebounded (duration of anti-aggressive effect): early and late adolescent SI mice.
Description: Resident-Intruder Test. To test aggression, a male intruder mouse of the same strain as the resident mouse, was placed in a resident home cage (24 cm×17 cm×12 cm) and resident-intruder interactions were videotaped for 10 min. Aggressive behavior of SI mice was characterized by an initial pattern of exploratory activity around the intruder, followed by rearing and tail rattle, accompanied within a few seconds by wrestling and/or a violent biting attacks. The total number of wrestling and attacks during the 10 min observation period was measured as previously described (Pinna et al., 2003, 2005), 60 min after drug administration. For every drug studied, SI mice were first exposed to three behavioral sessions, and then the average of basal aggression level for every single SI mouse was calculated; 2 days later, aggression levels following treatment were tested. Treated animals showing a reduction of the number of attacks less than 30% vs. the respective basal control values were considered as “low- to non-responders.”
Statistical Analyses. Results are presented as means±SEMs unless otherwise indicated. Student's t-test, one-way ANOVA and two-way ANOVA repeated measures followed by Bonferroni post hoc test were performed to analyze experimental data; significance was set at p<0.05. EC50 values were calculated from dose-response curves analyzed by the “quantal dose-response: probits test” using the computer program of Tallarida and Murray equipped with a statistical package (Tallarida and Murray, 1987). Statistical comparisons among the different EC50s were performed with the “cohort package software.” (available at cohort.com).
Data set [4] deals with allopregnanolone (Allo) levels. The data set can be described thus: Brain neurosteroid measurements (GC-MS): Allo. In kind it is in vivo, mice. The note with it: for Allo content in the olfactory bulb vs. PEA-treated mice (block of PEA effect): PEA 10 mg/kg i.p. 1 h before sacrifice. On the procedure: (§1) Brain neurosteroid measurements. Extraction, derivatization and quantification of unconjugated neurosteroids was described previously (32). Steroids were extracted and then purified and separated by high-performance liquid chromatography (HPLC) after addition of deuterium-labeled internal standards (25). The aqueous phase (2 ml) containing sulfated neurosteroids underwent a solvolysis. After derivatization, gas chromatography-mass spectrometry analysis in the standard electron impact mode as previously reported (24, 25).

For data set [5], the system named is SI mice. The data set can be described thus: Contextual fear conditioning, extinction and extinction retention. In kind it is in vivo. The note with it: PPAR-α KO mice; 5 mg/kg i.p. How it is done: (§2) Contextual fear conditioning. Contextual fear conditioning was performed as previously (25).
(§3) Conditioning trial. Mice were placed in the chamber and exposed for 8 min to a conditioned stimulus and an electric foot-shock (unconditioned stimulus).
(§4) Reactivation. 24 h after conditioning, mice were re-exposed for 5 min to the context for retrieval/reactivation and treated immediately after reactivation.
(§5) Extinction and extinction retention. 24 h after reactivation, mice were re-introduced for 5 min in the chamber once daily for 5 days and freezing time was an index of contextual fear responses. After an interval of 8 days, mice were re-exposed to the chamber to determine extinction retention (25).

Assay in data set [6]: as above
In kind it is in vivo, mice. Conditions: GH mice; 5 mg/kg i.p. On the procedure: as §2, §3, §4, §5

Data set [7] has as its system 5α-dihydroprogesterone (5α-DHP). The data set can be described thus: Brain neurosteroid measurements (GC-MS): 5α-DHP. In kind it is in vivo. The note with it: SI mice, 1 h. How it is done: as §1
Data set [8] concerns SI mice. The data set can be described thus: Tail suspension test (TST). The class given is in vivo. How it is done:
(§6) Forced swim test and tail suspension test. The forced swim test (FST) or a tail suspension test (TST) was performed as previously (30, 31). FST sessions were video-recorded for 6 min and the last 4 min were analyzed (30). TST duration was 6 min. Immobility time was an index of depressive-like behavior.

Data set [9] deals with Allo sulfate (Allo-S) and other sulfated neurosteroids. The data set can be described thus: Brain sulfated neurosteroid measurements (GC-MS). Conditions: SI mice; for Allo-S, hippocampus (increase): 60 minutes before sacrifice. In kind it is in vivo. On the procedure: as §1
The subject of data set [10] is SI mice. The data set can be described thus: Forced swim test (FST). In kind it is in vivo. On the procedure:
as §6

A further data set relates to Pregnenolone (PE). The data set can be described thus: Brain neurosteroid measurements (GC-MS): pregnenolone. In kind it is in vivo. Conditions: SI mice, 1 h. How it is done: as §1
Data set [11] relates to Progesterone (Prog) levels. The data set can be described thus: Brain neurosteroid measurements (GC-MS): progesterone. The class given is in vivo. Conditions: SI mice, 1 h. On the procedure:
as §1

Data set [12] relates to early and late adolescent SI mice. The data set can be described thus: Locomotor activity (Example 2). Conditions: all doses tested, i.p., 60 min before test.
The subject of a further data set is TNF-α. Conditions: depressed patients, responders [82]; cited from earlier work.
The subject of data set [13] is cannabinoid receptor type 1 (CB1). Conditions: direct activation of CB1 (Vallée et al., 2014); cited from earlier work.
For a further data set, the system named is PPD patients. Conditions: intravenous infusions, vs only 9% of placebo-treated; cited from earlier work.
The mark [14] stands for this setting: PPAR-α KO SI mice, 10 mg/kg i.p., 60 minutes before test.
[15] abbreviates: SI mice, 10 mg/kg i.p., 1 h before test.

Read-outs that look alike come from different tables or passages of the source.

For `CC(C)OC(=O)C(C)(C)Oc1ccc(C(=O)c2ccc(Cl)cc2)cc1` [fenofibrate, Fenofibrate], in the data set on SI mice [1], the “sedation / effect on locomotor activity” value was “do not induce sedation”. In addition, the “time spent in the open arms (increase vs vehicle-treated SI mice)” value is recorded as “+88%” with SI mice [2] (SI mice, 7.5 mg/kg s.c.); “+442%” in the data set with SI mice [2] (SI mice, 30 mg/kg s.c.); “+552%” in the data set with SI mice [2] (SI mice, 120 mg/kg s.c.).
With `CCCCCCCCCCCCCCCC(=O)NCCO` [PEA, N-Palmitoylethanolamine], the “sedation / effect on locomotor activity” value in the data set with SI mice [1] was “do not induce sedation”. Besides, in the data set on SI mice [2] (GH mice, 5-10 mg/kg i.p.), the “anxiolytic effect in GH mice (elevated plus maze)” value is listed as “had no effect”. For the same compound, the “number of entries in the open arms (vs vehicle)” value with SI mice [2] (setting [14]) was “+6%”. In addition, the “time spent in the open arms (vs vehicle)” value in the data set with SI mice [2] (setting [14]) is given as −1%. Moreover, the “reduction of the number of attacks vs. basal value” in data set [3] (early SI mice, 10 mg/kg i.p.) is −57%; in [3] (early SI mice, 15 mg/kg i.p.) it was −75%; in data set [3] (early SI mice, 20 mg/kg i.p.), −86%; in data set [3] (late SI mice, 10 mg/kg i.p.), −81%; in [3] (late SI mice, 15 mg/kg i.p.), −84%; in [3] (late SI mice, 20 mg/kg i.p.), −91%. For the same compound, the “EC50 dose, reduction of aggression” value came out at 8 mg/kg in [3] (early adolescent SI mice (PND 21)) and 6.5 mg/kg in [3] (late adolescent SI mice (PND 45)). The “duration of anti-aggressive effect” value in data set [3] (single dose 10 mg/kg and 15 mg/kg, late SI adolescent mice) was “less than 3 days”. The “time after which the effect was extinguished” value in data set [3] (single dose 20 mg/kg, late SI mice) is listed as 5 days. Further, the “duration of anti-aggressive effect (persisted)” value in data set [3] (single dose 20 mg/kg, late adolescent SI mice) is given as 3 days. The “time after which aggressive behavior was reinstated” value in [3] (single dose 10, 15, and 20 mg/kg, early SI mice) worked out at 3 days; in data set [3] (single dose 10 and 15 mg/kg, late SI mice) it was 3 days. Moreover, in data set [4] (GH mice, 20 mg/kg i.p., 60 minutes before sacrifice), the “Allo concentrations, olfactory bulb of GH mice” value is “does not modify”. Besides, in [4] (SI PPAR-α KO mice, 10 mg/kg i.p., 1 h before sacrifice), the “Allo levels, olfactory bulb of PPAR-α KO mice” value is listed as “failed to affect”. Also, the “Allo levels in the serum (peripheral levels)” value in data set [4] (SI mice, 10 mg/kg i.p., 1 h before sacrifice) is given as “failed to change”. The “Allo levels, striatum” value in data set [4] (SI mice, 5, 10 and 20 mg/kg i.p., 1 h) is given as “failed to change”. For the same compound, in the data set with SI mice [5], the “contextual fear responses in PPAR-α KO mice” value is “failed to affect contextual fear responses”. Further, the “contextual fear responses in GH mice” value in [6] is on record as “failed to affect contextual fear responses”. The “5α-dihydroprogesterone (5α-DHP), hippocampus (increase)” value is listed as “+64%” in data set [7] (10 mg/kg i.p.) and “+87%” in [7] (20 mg/kg i.p.). The “time of immobility in the TST in GH-control animals” value in the data set with SI mice [8] (GH-control mice, 10 mg/kg) is “lack of effect”. Also, the “time of immobility in the TST vs vehicle-treated mice” value in the data set on SI mice [8] (PPAR-α KO mice, 10 mg/kg i.p.) was “+12%”. Besides, the “Allo-S, hippocampus (increase)” value in data set [9] (10 mg/kg i.p.) is on record as “+100%”; in data set [9] (20 mg/kg i.p.) it was “+104%”. Moreover, the “other sulfated neurosteroid levels (PE sulfate, PA sulfate, DHEA sulfate)” value in data set [9] (olfactory bulb and hippocampus, 5, 10 and 20 mg/kg i.p.) is given as “did not affect”. Besides, the “time of immobility in the FST in GH-control animals” value in the data set on SI mice [10] (GH-control mice, 10 mg/kg) was “lack of effect”. Moreover, in the data set with SI mice [10] (PPAR-α KO mice, 10 mg/kg i.p.), the “time of immobility in the FST vs vehicle-treated mice” value is “+5%”. The “Pregnenolone (PE), olfactory bulb (increase)” value is “+50%” in the data set on Pregnenolone (PE) (5 mg/kg i.p.) and “+69%” in the data set with Pregnenolone (PE) (10 mg/kg i.p.). Further, the “Progesterone (Prog) levels, striatum (increase)” value in data set [11] (10 mg/kg i.p.) is listed as “+356%”; in data set [11] (20 mg/kg i.p.), “+594%”. Besides, in data set [11] (20 mg/kg i.p.), the “Progesterone (Prog) levels, amygdala (increase)” value is on record as “+223%”. Besides, the “Progesterone (Prog) levels, hippocampus (increase)” value in data set [11] (20 mg/kg i.p.) is listed as “+3128%”.
`CNCC[C@H](Oc1ccc(C(F)(F)F)cc1)c1ccccc1` [S-FLX, S-fluoxetine]: the “reduction in the number of attacks vs. basal value” in [3] (late SI mice, 0.75 mg/kg i.p.) is reported as −52%. For the same compound, the “time after which aggression rebounded (duration of anti-aggressive effect)” value in data set [3] (single dose 0.375 mg/kg) came out at 1 days; in data set [3] (single dose 0.75 mg/kg and […]), 3 days. For the same compound, in data set [12], the “exploratory / locomotor activity” value was “did not reduce”.
Turning to `CN(C)CCC[C@@]1(c2ccc(F)cc2)OCc2cc(C#N)ccc21` [escitalopram], the “lower expression of TNF-α after successful treatment” value in the data set on TNF-α was 30%.
With `CC(C)(Sc1ccc(CCN(CCCCC2CCCCC2)C(=O)NC2CCCCC2)cc1)C(=O)O` [G7, GW7647], the “sedation / effect on locomotor activity” value in the data set on SI mice [1] is on record as “do not induce sedation”. In the data set on SI mice [2] (setting [15]), the “number of entries in the open arms (change vs vehicle-treated SI mice)” value is “+247%” and the “time spent in the open arms (change vs vehicle-treated SI mice)” value is “+506%”. Further, the “Allo levels, olfactory bulb (increase vs vehicle-treated SI mice)” value in data set [4] (SI mice, 10 mg/kg i.p., 1 h) was “+89%”.
Consider `CC(C)(C)NC(=O)[C@H]1CC[C@H]2[C@@H]3CC[C@H]4NC(=O)C=C[C@]4(C)[C@H]3CC[C@]12C` [FIN, Finasteride], for which, in the data set on SI mice [1], the “sedation / effect on locomotor activity” value is given as “do not induce sedation”. Moreover, in the data set with SI mice [2] (SI mice, 50 mg/kg s.c. 2.5 h before test), the “prevention of the anxiolytic effect of PEA, vs. PEA 10 mg/kg (FIG. 3D)” value was −68%. The “Allo content in the olfactory bulb vs. PEA-treated mice (block of PEA effect)” value in data set [4] (SI mice, 50 mg/kg s.c. 2.5 h before sacrifice) was −60%.
Regarding `CCC(=O)NC[C@H](Cc1ccc(OCCc2nc(-c3ccccc3)oc2C)cc1)N/C(C)=C\C(=O)c1ccc(C(F)(F)F)cc1` [G6, GW6471], in the data set with SI mice [1], the “sedation / effect on locomotor activity” value is recorded as “do not induce sedation”. For the same compound, the “prevention of the anxiolytic effect of PEA, vs. PEA 10 mg/kg (FIG. 3D)” value in the data set on SI mice [2] (SI mice, 3 mg/kg i.p. […] before test) is given as −78%. Also, the “Allo content in the olfactory bulb vs. PEA-treated mice (block of PEA effect)” value in data set [4] (SI mice, 3 mg/kg i.p. […] before sacrifice) is listed as −48%.
`CCCCCc1cc(O)c2c(c1)OC(C)(C)[C@@H]1CCC(C)=C[C@@H]21` [THC, 19-tetrahydrocannabinol]: the “increase of the synthesis of pregnenolone” value in [13] is recorded as 30 fold.
Turning to `CC(=O)[C@H]1CC[C@H]2[C@@H]3CC[C@H]4C[C@H](O)CC[C@]4(C)[C@H]3CC[C@]12C` [allopregnanolone], the “patients with rapid and long lasting remission of depressive symptoms” value in the data set on PPD patients is 70%.

Source of the values: patent publication US11752115B2, “PPAR-alpha agonist treatment of neuropsychiatric disorders” (THE BOARD OF TRUSTEES OF THE UNIVERSITY OF ILLINOIS, priority 2017, dated 2023).
